Measurements reported in patent publication US12576150B2, “CD4+ T cells expressing IL-10 and chimeric antigen receptors and uses thereof” (TR1X, INC., priority 2021, dated 2026).

Tested on: NLPR3 inflammasome, LPS activated monocytes
Assay: IL-1β production by LPS activated monocytes
Type: cell-based, human
Conditions: with anti-IL-10 receptor antibody
Protocol: CD14^+ monocytes were isolated from PBMC using a pan monocyte isolation kit (Miltenyi Biotec, Bergisch Gladbach, Germany) and plated in 96 flat microtiter wells at 2×10^5/200 μL per well and cultured in the presence of LPS. The cells were cultured further in the presence of Z-YVADfmk (20 μM), MMC950 (10 μM), IL-10 (10 ng/ml) or various concentrations of single- or pooled donor […] cell supernatants as summarized in Table 1.
The supernatants were obtained from single- or pooled donor CD4^IL-10 cells activated for 72 hours with a combination of CD3 and CD28 antibodies as described previously. (Andolfi et al. 2012, Mol. Therapy Vol. 20, 1778-1790, Locafaro et al. Mol Ther 2017, 25, 2254) In some cases (FIGS. 35C and 35D), the monocytes were incubated with LPS in combination with the NLPR3 inflammasome activator nigericin (“NIG”) which was added during the last 30 minutes of the LPS activation.

Q: Which “effect of anti-IL-10 receptor antibody on the inhibition of IL-1β production” value does the source give for `CC(C)(O)c1coc(S(=O)(=O)NC(=O)Nc2c3c(cc4c2CCC4)CCC3)c1` [MCC950] here?
A: no effect

Q: How did the “effect of anti-IL-10 receptor antibody on the inhibition of IL-1β production” value turn out when `COC(=O)C[C@H](NC(=O)[C@H](C)NC(=O)[C@@H](NC(=O)[C@H](Cc1ccc(O)cc1)NC(=O)OCc1ccccc1)C(C)C)C(=O)CF` [Z-YVADfmk] was run?
A: no effect
